No end group written: not given here.
How the values were obtained:
Recombinant S100P [1] = target: T1, Recombinant S100P (UniProt P25815 1-95, 15N-labelled in the NMR experiments); experiment: SPR; competition: 20 µM peptide mixed with 1 µM S100P, applied to the α,β-tubulin-coated chip; extent of binding relative to S100P alone (100%)
T1 chain: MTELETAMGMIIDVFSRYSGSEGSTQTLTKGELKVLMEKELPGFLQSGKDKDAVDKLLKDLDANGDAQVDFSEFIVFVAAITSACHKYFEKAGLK

[2] = cited from earlier work; for Kd: ref [58], read-out: Kd for Ca2+ in absence of protein target
Text: Cell migration is a complicated biological process involving many disparate cellular machines and regulatory systems. The cytoskeleton is essential for cell migration and is composed of three major types of fibres, intermediate filaments, actomyosin filaments and MTs. The intermediate filaments mainly provide mechanical strength to cells, whilst actomyosin filaments directly provide forces for cell migration. The roles of MTs in cell migration are more complex. On the one hand, MTs are a major support to cell polarity and their assembly can provide force for directional mo ...

tubulin = settings: cited from earlier work; for interaction with tubulin: ref [24]; for effect on MT assembly: ref [25]
Text: The individual S100 proteins have been reported to interact inter alia with either NM or with tubulin, although with different binding affinities. […] Decreasing S100A1 is able to increase tubulin levels and this change alters neurite organisation in […]. […] However, it is ...

[3] = system: tubulin polymerisation in COS-7 S10 cells; experiment: In vivo tubulin polymerisation assay, COS-7 / COS-7 S10; format: cell-based, monkey; settings: parental COS-7, 1 µg/ml doxycycline
Method: (§1) HeLa and S100P-inducible HeLa, COS-7 and S100P-inducible COS-7 cells were routinely cultured with or without doxycycline (1 µg/ml) and treated with 33 µM nocodazole for 24 h to synchronise the cells. Then the nocodazole was washed away (First release) and the synchronised cells were cultured in normal medium for 4 h to allow them to complete cell division. The nocodazole was then added again for 4 h to dissociate all the MTs. After this time, nocodazole was again removed by extensive washings (Second release) and tubulin was allowed to polymerise in the interphase of the cell cycle for different times. The cells were treated with buffer (10 mM Tris–HCl, 150 mM KCl, pH 7.4, 2% (v/v) Triton X-100) and the Triton-X100-insoluble tubulins (representing the newly formed MTs) were solubilised in Sample Buffer and quantified by Western blotting. To test the effect of tubulin-derived peptides, 20 µM T-DIC, T-DLV, T-IMN and tag-peptide alone (Supplementary Table S3) in 0.25% (v/v) DMSO as solvent, as well as the solvent control 0.25% (v/v) DMSO were added immediately after the second release in Sample Buffer and quantified at the different time points by Western blotting.

[4] = system: tubulin polymerisation in HeLa-A19 cells; experiment: In vivo tubulin polymerisation assay, HeLa / HeLa-A19; format: cell-based, human; settings: parental HeLa, 1 µg/ml doxycycline
Method: as §1

S100P = target: T2, S100P (Homo sapiens, UniProt P25815); experiment: Isothermal titration calorimetry (ITC) of tubulin peptides with S100P; format: binding; settings: for affinity for S100P (in words): NMR and ITC
T2 construct: made in house
T2 sequence (P25815 1-95): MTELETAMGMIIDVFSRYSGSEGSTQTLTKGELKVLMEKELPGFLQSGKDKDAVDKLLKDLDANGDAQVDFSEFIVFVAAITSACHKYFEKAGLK
Method: Measurements were conducted using an ITC-200 instrument (Microcal) as previously described. ITC titrations were performed in 20 mM MES pH 6.1, 50 mM NaCl, 1.0 mM TCEP and 5 mM CaCl2 (for Ca^2+-form of S100P) at 25°C. Due to low solubility, peptide solutions at concentrations of 10–400 µM were placed in the cell and titrated with S100P at concentrations of 0.5–3 mM, depending on the peptide concentration. Data were integrated and fitted to a single site binding equation using Origin 7 software which was included with the ITC module (Malvern Microcal, Malvern, U.K.).

S100P - α,β-tubulin = experiment: SPR inhibition of S100P binding to α,β-tubulin-coated chip by peptides; set-up: species or system human; settings: 20 µM peptide, 1 µM S100P
Method: For SPR binding assays, α,β-tubulin proteins described earlier were immobilised on a carboxymethylated dextran surface of a CM5 chip using BS^3 for use in Biocore X100. Recombinant S100P produced as described previously was used as a ligand in different concentrations at 20, 50, 100, 200, 1000, 2000 nM for calculation of the equilibrium dissociation constant (Kd) from the association/dissociation rate constants and from the extent of binding near equilibrium (Supplementary Table S2), as described previously. To detect the effects of tubulin peptides on the interaction of tubulin, different concentrations of tagged and untagged peptides were mixed with 1 µM S100P first and the mixtures were then applied to the tubulin-coated chip. The relative changes in kinetics and binding extents with different peptides were calculated using software provided by the manufacturer.

COS-7 S10 cells = experiment: Boyden chamber cell migration, S100P-inducible COS-7; format: cell-based, monkey
Text: (§2) Cell migration rate (%) = M/G × 100.

HeLa cells = experiment: Boyden chamber cell migration with MT regulators, HeLa; settings: 5 µM colchicine, 24 h
Rama 37 cells = experiment: Boyden chamber cell migration with MT regulators, Rama 37; settings: 5 µM colchicine, 24 h
MCF-7 cells = experiment: Boyden chamber cell migration with MT regulators, MCF-7
COS-7 cells = experiment: Boyden chamber cell migration, COS-7 parental; format: cell-based, monkey; settings: 5 µM colchicine, 24 h, COS-7
Text: as §2

HeLa-A3 cells = experiment: S100P-enhanced cell migration, HeLa-A3; format: cell-based, human; settings: HeLa-A3; 20 nM taxol or 5 µM colchicine, 24 h
Text: as §2

Rama 37-T25 cells = experiment: S100P-enhanced cell migration, Rama 37-T25; format: cell-based, rat; settings: Rama 37-T25; 20 nM taxol or 5 µM colchicine, 24 h
Text: as §2

Recombinant S100P [5] = target: T1, Recombinant S100P; experiment: ITC
αβ-tubulin [6] = target: αβ-tubulin (UniProt P68363); experiment: SPR; αβ-tubulin immobilised on a CM5 chip (Biacore X100), S100P in solution; 150 mM NaCl, 0.5 mM CaCl2, single cycle; Kd from the association and dissociation rate constants
αβ-tubulin [7] = target: αβ-tubulin (UniProt P68363); experiment: SPR; αβ-tubulin immobilised on a CM5 chip, S100P in solution; 300 mM NaCl (printed 300M), 0.5 mM CaCl2, multiple cycles; Kd from the extent of binding at or near equilibrium
αβ-tubulin [8] = target: αβ-tubulin (UniProt P68363); experiment: SPR; αβ-tubulin immobilised on a CM5 chip, S100P in solution; 300 mM NaCl (printed 300M), 0.5 mM CaCl2, multiple cycles; Kd from the association and dissociation rate constants
αβ-tubulin [9] = target: αβ-tubulin (UniProt P68363); experiment: SPR; αβ-tubulin immobilised on a CM5 chip, S100P in solution; 150 mM NaCl, 0.5 mM CaCl2, multiple cycles; Kd from the association and dissociation rate constants
αβ-tubulin [10] = target: αβ-tubulin (UniProt P68363); experiment: SPR; αβ-tubulin immobilised on a CM5 chip, S100P in solution; 500 mM NaCl (printed 500M), 0.5 mM CaCl2, multiple cycles; Kd from the association and dissociation rate constants

Q: For “T-DLV, DLV peptide with the N-terminal 10 amino acid TAT-HA2 tag for cell entry”, which percent reduction of the extent of binding of 1 µM S100P to α,β-tubulin at 20 µM peptide (Recombinant S100P [1]) is on record?
A: Its percent reduction of the extent of binding of 1 µM S100P to α,β-tubulin at 20 µM peptide is 50%.

Q: Which results are given for S100B: S100 protein?
A: Kd [2]: > 1000 nM; interaction with tubulin (tubulin): can interact with tubulin in a calcium-dependent manner; effect on MT assembly (tubulin): disrupt the assembly of MT

Q: What does the source list for `C[C@H]1c2cccc(O)c2C(=O)C2=C(O)[C@]3(O)C(=O)C(C(N)=O)=C(O)[C@@H](N(C)C)[C@@H]3[C@@H](O)[C@@H]21` [doxycycline, reference compound]?
A: effect of doxycycline on tubulin polymerisation, parental cells [3]: no significant differences; effect of doxycycline on tubulin polymerisation, parental cells [4]: no significant differences

Q: What does the source list for VNAAIATIKTKRTIQFVDWCPTGFKVGINY [VNA]?
A: Kd (S100P; ITC, 25°C, 20 mM MES pH 6.1, 50 mM NaCl, 1.0 mM TCEP, 5 mM CaCl2, single site fit, peptide in cell, S100P titrated): 62 µM; affinity for S100P (in words) (S100P): relatively weak

Q: With “T-DIC, DIC peptide with the N-terminal 10 amino acid TAT-HA2 tag for cell entry” as the molecule, how does the percent reduction of the extent of binding of 1 µM S100P to α,β-tubulin at 20 µM peptide (Recombinant S100P [1]) read?
A: Its percent reduction of the extent of binding of 1 µM S100P to α,β-tubulin at 20 µM peptide is 50%.

Q: For “RRRQRRKKRG [Tag, 10 amino acid TAT-HA2 tag for cell entry, reference compound]”, which “effect on extent of binding of S100P to α,β-tubulin (in words)” value (S100P - α,β-tubulin) is on record?
A: Its value is “showed no effect in the binding assay”.

Q: And the “S100P-induced fold increase in migration in the presence of peptide” value (COS-7 S10 cells; 20 µM tagged peptide, 8 h, doxycycline-induced COS-7 S10 vs uninduced)?
A: Its value is 3.5 fold.

Q: For `COc1cc2c(c(OC)c1OC)-c1ccc(OC)c(=O)cc1[C@@H](NC(C)=O)CC2` [colchicine], which “reduction of migration by colchicine” value (HeLa cells) is on record?
A: Its value is 30–70%.

Q: What about the “reduction of migration by colchicine” value (Rama 37 cells) of the same molecule?
A: Its value is 30–70%.

Q: What about the “effect of colchicine on migration (in words)” value (MCF-7 cells; MCF-7, 5 µM time course, dose response 24 h) of the same molecule?
A: Its value is “increase dramatically cell migration in a time and dose-dependent manner”.

Q: What about the “concentration abolishing the enhancement of migration” value (MCF-7 cells; MCF-7, colchicine) of the same molecule?
A: The value was greater than 10 µM.

Q: And the “incubation time abolishing the enhancement of migration” value (MCF-7 cells; MCF-7, colchicine)?
A: Its value is greater than 24 h.

Q: What about the “concentration range enhancing migration” value (MCF-7 cells; MCF-7, colchicine, Figure 6C) of the same molecule?
A: Its value is 1 to 10 µM.

Q: And the “reduction of migration by colchicine” value (COS-7 cells)?
A: Its value is 30–70%.

Q: What about the “effect on S100P-enhanced migration” value (HeLa-A3 cells) of the same molecule?
A: Its value is “suppressed”.

Q: And the “effect on S100P-enhanced migration” value (COS-7 S10 cells; COS-7 S10, 20 nM taxol or 5 µM colchicine, 24 h)?
A: The value was “suppressed”.

Q: And the “effect on S100P's stimulation of migration” value (COS-7 S10 cells; taxol to stabilise MTs or colchicine to dissociate MTs (abstract))?
A: Its value is “abolished”.

Q: And the “effect on S100P-enhanced migration” value (Rama 37-T25 cells)?
A: Its value is “suppressed”.

Q: Which percent inhibition of the extent of binding of 1 µM S100P to α,β-tubulin at 20 µM peptide (Recombinant S100P [1]) does the source give for “DIC peptide, the 26mer starting with DIC from β-tubulin” here?
A: Its percent inhibition of the extent of binding of 1 µM S100P to α,β-tubulin at 20 µM peptide is greater than 50%.

Q: What does the source list for S100A4: S100 protein?
A: change of Ca2+ Kd in complex with NMIIA fragments ([2]; ITC, preformed S100A4/NMIIA fragments, ref [57]): reduced by several orders of magnitude; Kd [2]: > 1000 nM

Q: For IMNTFSVVPSPKVSDTVVEPYNATL-SVH, which “effect on extent of binding of S100P to α,β-tubulin (in words)” value (S100P - α,β-tubulin) is on record?
A: The value was “showed no such effect”.

Q: And the “affinity for S100P (in words)” value (S100P)?
A: Its value is “very weak or nonbinder”.

Q: Which results are given for DLVLDRIRKLADQCTGLQGFLVFHSFGGGT [DLV peptide, the 30mer starting with DLV from α-tubulin]?
A: Kd (Recombinant S100P [5]): < 10 µM; percent inhibition of the extent of binding of 1 µM S100P to α,β-tubulin at 20 µM peptide (Recombinant S100P [1]): > 50%

B1: S100P (natural protein)
chain: MTELETAMGMIIDVFSRYSGSEGSTQTLTKGELKVLMEKELPGFLQSGKDKDAVDKLLKDLDANGDAQVDFSEFIVFVAAITSACHKYFEKAGLK
Q: With B1 as the molecule, how does the Kd (αβ-tubulin [6]) read?
A: The Kd was 120 nM.

Q: What about the Kd (αβ-tubulin [7]) of the same molecule?
A: The Kd was 1100 nM.

Q: What about the Kd (αβ-tubulin [8]) of the same molecule?
A: Its Kd is 890 nM.

Q: What about the Kd (αβ-tubulin [9]) of the same molecule?
A: The Kd was 210 nM.

Q: What about the Kd (αβ-tubulin [10]) of the same molecule?
A: The Kd was 8.3 µM.

B2: S100A1: S100 protein (protein, UniProt P23297 1-94, looked up)
Protein S100-A1: MGSELETAMETLINVFHAHSGKEGDKYKLSKKELKELLQTELSGFLDAQKDVDAVDKVMKELDENGDGEVDFQEYVVLVAALTVACNNFFWENS
Q: For B2, which interaction with tubulin (tubulin) is on record?
A: Its interaction with tubulin is “can interact with tubulin in a calcium-dependent manner”.

Q: What about the “effect on MT assembly” value (tubulin) of the same molecule?
A: The value was “disrupt the assembly of MT”.

B3: S100A9/A8: S100A9/A8 (MRP14/MRP8) complex (protein, UniProt P06702 1-114; P05109 1-93, looked up)
Protein S100-A9: MTCKMSQLERNIETIINTFHQYSVKLGHPDTLNQGEFKELVRKDLQNFLKKENKNEKVIEHIMEDLDTNADKQLSFEEFIMLMARLTWASHEKMHEGDEGPGHHHKPGLGEGTP
Protein S100-A8: MLTELEKALNSIIDVYHKYSLIKGNFHAVYRDDLKKLLETECPQYIRKKGADVWFKELDINTDGAVNFQEFLILVIKMGVAAHKKSHEESHKE
Q: With B3 as the molecule, how does the “effect on tubulin polymerisation in vivo” value (tubulin; ref [27]) read?
A: The value was “promotes tubulin polymerisation in vivo”.
